Assay results from patent publication US20240391948A1, “NOVEL COMPOUND THAT INHIBITS TNF-ALPHA GENERATION AND INFLAMMASOME ACTIVITY AND PREPARATION METHOD THEREFOR” (SHAPERON INC., priority 2021, published 2024).

What was measured:
Format in all cases: cell-based
[1] = system: J774A.1 (Mouse BALB/c monocyte macrophage cell line) cells; assay: LPS-induced TNF-α secretion inhibition in J774A.1 cells; conditions: J774.A1, 1 μM compound, graded compared to taurodeoxycholic acid (positive control), read-out: TNF-α production inhibition grade
Experimental: (§1) To evaluate anti-inflammatory efficacy, an inflammatory response was induced in J774A.1 (Mouse BALB/c monocyte macrophage cell line) cells derived from mouse macrophages by LPS (lipopolysaccharide) and LPS+ATP (adenosine triphosphate), and the efficacy of taurine-bile acid derivatives to inhibit the production of inflammatory cytokines (IL-1β, TNF-α) was measured. After treating J774A.1 cells with 1 μM of a taurine-bile acid derivative, the degree to which the secretion of TNF-α among cytokines was suppressed was measured in the experimental group in which an inflammatory response was induced by LPS, and the extent to which IL-1β secretion among cytokines was suppressed was measured in the experimental group in which an inflammatory response was induced with LPS+ATP. The ability of taurine-bile acid derivatives to inhibit cytokine production was graded compared to taurodeoxycholic acid, a positive control. The grading criteria are A: over 100%, B: over 50% and under 100%, C: between 20% and under 50%, and D: under 20%.

[2] = system: J774A.1 (Mouse BALB/c monocyte macrophage cell line) cells; assay: LPS+ATP-induced IL-1β secretion inhibition in J774A.1 cells; conditions: J774.A1, 1 μM compound, graded compared to taurodeoxycholic acid (positive control), read-out: IL-1β production inhibition grade
Experimental: as §1

[3] = system: U937 cells (human monocytic cell line); assay: Pam2CSK4-induced TNF-α secretion inhibition in PMA-differentiated U937 cells; conditions: U-937, U937 cells differentiated with PMA, read-out: TNF-α production inhibition grade (IC50)
Experimental: (§2) To evaluate anti-inflammatory efficacy, U937 cells (human monocytic cell line) were differentiated into macrophages using PMA (phorbol 12-myristate 13-acetate) and then induced an inflammatory response with Pam2CSK4 (Pam2CysSerLys4) or BzATP (2′(3′)—O-(4-Benzoylbenzoyl)adenosine 5′-triphosphate), the efficacy of taurine-bile acid derivatives in suppressing inflammatory cytokine (IL-1β, TNF-α) production was measured.
(§3) Using PMA, U937 cells were differentiated into macrophages, and the extent of TNF-α secretion inhibition was measured in an experimental group where taurine-bile acid derivatives was treated, followed by induction of inflammatory response with Pam2CSK4, and in the experimental group in which an inflammatory response was induced with BzATP, the extent to which IL-1β secretion among cytokines was suppressed was measured.
(§4) The ability of taurine-bile acid derivatives to inhibit cytokine production was expressed in terms of IC50 (μM) values. The standards for TNF α inhibition ability are A: less than 0.5, B: 0.5 to less than 1.0, C: 1.0 to less than 2.0, D: 2.0 or more, and the IL-1β inhibition ability grade standards are A: less than 0.05, B: 0.05 to less than 0.10, C: 0.10 or more and less than 0.20, D: 0.20 or more.

[4] = system: U937 cells (human monocytic cell line); assay: BzATP-induced IL-1β secretion inhibition in PMA-differentiated U937 cells; conditions: U-937, U937 cells differentiated with PMA, read-out: IL-1β production inhibition grade (IC50)
Experimental: as §2, §3, §4

| Compound | inhibition at 1 µM [1] | inhibition at 1 µM [2] | IC50 [3] | IC50 [4] |
| --- | --- | --- | --- | --- |
| C[C@H](CCC(=O)N(CCN(C)C)CCS(=O)(=O)O)[C@H]1CC[C@H]2[C@@H]3CC[C@@H]4CC(=O)CC[C@]4(C)[C@H]3CC[C@]12C [NC30035] | > 100% | > 100% | 500 to 1000 nM | < 50 nM |
| CC[C@H]1[C@@H](O)[C@@H]2[C@H](CC[C@]3(C)[C@@H]([C@H](C)CCC(=O)N4CCC[C@@H]4CS(=O)(=O)O)CC[C@@H]23)[C@@]2(C)CC[C@@H](O)C[C@@H]12 [NC40020] | < 20% | > 100% | 1000 to 2000 nM | 100 to 200 nM |
| CC[C@H]1[C@@H](O)[C@@H]2[C@H](CC[C@]3(C)[C@@H]([C@H](C)CCC(=O)NC[C@H](C)S(=O)(=O)O)CC[C@@H]23)[C@@]2(C)CC[C@@H](O)C[C@@H]12 [NC40022] | 20 to 50% | 20 to 50% | 500 to 1000 nM | ≥ 200 nM |
| C[C@H](CCC(=O)N[C@@H](CS(=O)(=O)O)c1ccccc1)[C@H]1CC[C@H]2[C@@H]3[C@H](O)C[C@@H]4C[C@H](O)CC[C@]4(C)[C@H]3C[C@H](O)[C@]12C [NC20019] | < 20% | < 20% | 1000 to 2000 nM | 50 to 100 nM |
| CC[C@H]1[C@@H](O)[C@@H]2[C@H](CC[C@]3(C)[C@@H]([C@H](C)CCC(=O)N[C@H](CS(=O)(=O)O)c4ccccc4)CC[C@@H]23)[C@@]2(C)CC[C@@H](O)C[C@@H]12 [NC40018] | < 20% | > 100% | < 500 nM | < 50 nM |
| C[C@H](CCC(=O)N1CC[C@@H](S(=O)(=O)O)C1)[C@H]1CC[C@H]2[C@@H]3CC[C@@H]4C[C@H](O)CC[C@]4(C)[C@H]3CC[C@]12C [NC10090] | < 20% | < 20% | 500 to 1000 nM | ≥ 200 nM |
| CC[C@H]1[C@@H](O)[C@@H]2[C@H](CC[C@]3(C)[C@@H]([C@H](C)CCC(=O)N4CCC(S(=O)(=O)O)CC4)CC[C@@H]23)[C@@]2(C)CC[C@@H](O)C[C@@H]12 [NC40011] | < 20% | 20 to 50% | 500 to 1000 nM | ≥ 200 nM |
| C[C@H](CCC(=O)NC[C@H](C)S(=O)(=O)O)[C@H]1CC[C@H]2[C@@H]3CC[C@@H]4CC(=O)CC[C@]4(C)[C@H]3CC[C@]12C [NC30022] | 20 to 50% | 20 to 50% | ≥ 2000 nM | ≥ 200 nM |
| C[C@H](CCC(=O)N[C@H](Cc1ccccc1)CS(=O)(=O)O)[C@H]1CC[C@H]2[C@@H]3CC[C@@H]4CC(=O)CC[C@]4(C)[C@H]3CC[C@]12C [NC30015] | < 20% | < 20% | < 500 nM | ≥ 200 nM |
| C[C@H](CCC(=O)N1CCC(S(=O)(=O)O)CC1)[C@H]1CC[C@H]2[C@@H]3[C@H](O)C[C@@H]4C[C@H](O)CC[C@]4(C)[C@H]3C[C@H](O)[C@]12C [NC20011] | < 20% | 50 to 100% | ≥ 2000 nM | 50 to 100 nM |
| C[C@H](CCC(=O)N[C@H](CS(=O)(=O)O)c1ccccc1)[C@H]1CC[C@H]2[C@@H]3CC[C@@H]4C[C@H](O)CC[C@]4(C)[C@H]3CC[C@]12C [NC10074] | < 20% | > 100% | < 500 nM | 50 to 100 nM |
| CC[C@H]1[C@@H](O)[C@@H]2[C@H](C[C@H](O)[C@]3(C)[C@@H]([C@H](C)CCC(=O)N[C@H]4CCCC[C@H]4S(=O)(=O)O)CC[C@@H]23)[C@@]2(C)CC[C@@H](O)C[C@@H]12 [NC50027] | < 20% | 20 to 50% | 1000 to 2000 nM | ≥ 200 nM |
